Experiment: gradient 5% acetonitrile 3 min, to 50% in 2 min, to 85% in 15 min, held 3 min, 100 µL/min
Conditions: column: Zorbax Extend-C18 2.1 x 50 mm; eluents: water / acetonitrile, 0.1% formic acid
Outline: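 Standards, all pure, were combined into mixtures of ~100 molecules and run at 100 μL/min on a Zorbax Extend-C18 column (2.1 × 50 mm, 1.8 μm) with water and acetonitrile, each containing 0.1% formic acid. A coupled quadrupole time-of-flight mass spectrometer operated in positive and negative ionization mode. Retention time values come from computationally picked adduct peaks, each inspected manually.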

| Compound | RP-LC retention time |
| --- | --- |
| O=C(NCc1ccncc1)c1ccc(-c2cccs2)nc1 | 588 s |
| CSc1cccc(NC(=O)N2CCc3c(c(-c4nc(C5CC5)no4)nn3C)C2)c1 | 883 s |
| O=C(CCc1ccc2cc[nH]c2c1)NCc1ccc(F)cc1 | 808 s |
| O=C(NCc1ccccc1)c1c(O)c2cccnc2[nH]c1=O | 913 s |
| O=C(CN1CCC(c2nc(-c3cccs3)no2)CC1)Nc1ccccc1C(F)(F)F | 753 s |
| Cc1nnc(-c2nnc(NC3CCCCCC3)c3ccccc23)o1 | 766 s |
| CCc1nc2sc(C(C)C)nn2c1S(=O)(=O)N1CCCCC1 | 1020 s |
| COc1ccc(C)cc1NC(=O)Cn1nc2c(Oc3cccc(F)c3)nccn2c1=O | 936 s |
| CCOc1cc(=O)n2c(c1C(=O)Nc1cc(OC)c(Cl)cc1OC)CCCC2 | 763 s |
| COc1ccc(NC(=O)N2CCC3(CC2)NC(=O)c2ccccc2O3)cc1 | 712 s |
| Cc1ccc2[nH]c(=O)c(CCC(=O)NC(C)c3cn(C)nc3C)cc2c1 (stereo not given) | 618 s |
| Cc1cccc(NC(=O)c2cnc3c(c2)c(=O)n(C)c(=O)n3-c2ccccc2)c1 | 926 s |
| C=C1C(=O)OC2C1CCC(C)C1(O)C=CC(=O)C21C (stereo not given) | 722 s |
| CC(C)c1noc(-c2ccnc(-n3cnc(C(=O)N4CCCC4)c3)c2)n1 | 616 s |
| CCc1ccc(CN2C(=O)CN(S(C)(=O)=O)CC2(C)C(=O)NCc2ccccc2)cc1 (stereo not given) | 868 s |
| CC(C)(C)NC(=O)NCCC1CCN(S(=O)(=O)c2ccccc2)CC1 | 822 s |
| COC(=O)C1=CN(c2ccccc2OC)c2cc(F)ccc2S1(=O)=O | 860 s |
| O=C(Cc1csc(NC(=O)C2CC2)n1)NCc1ccccn1 | 519 s |
| c1cncc(-c2n[nH]c(C3CCCCN3)n2)c1 (stereo not given) | 555 s |
| COc1ccc(NS(=O)(=O)c2cc3n(c2)CCN(C)C3=O)cc1 | 657 s |
| CCn1cc(CCNS(=O)(=O)c2ccc(C)cc2)c2cccnc21 | 786 s |
| COc1cccc(-c2nc3sc(C(=O)N4CCOCC4)c(C)n3c2NC(C)(C)C)c1 | 795 s |
| Cc1cc(C)n(Cc2nc(-c3ccc(NC(=O)C4CCCC4)cc3)oc2C)n1 | 931 s |
| N#Cc1ccccc1CN1C[C@@H](CO)[C@H](c2nc(C3CC3)no2)C1 | 607 s |
| CCCn1cc(C(=O)Nc2ccc(OC)cc2C)c(=O)c2ccc(C)nc21 | 1130 s |
| CCOC(=O)c1[nH]c(C)c(CN(Cc2ccccc2)C(=O)c2ccco2)c1C | 946 s |
| Cc1cc(C)cc(Nc2nc(C)cc3nn(CC(=O)NC4CCCC4)c(=O)n23)c1 | 998 s |
| CCn1ccc(C(=O)Nc2cccc(OCc3nnc(-c4ccccc4)o3)c2)n1 | 891 s |

| Compound | RP-LC retention time |
| --- | --- |
| Cc1cc2c(cc(C(=O)N3CCC(C(=O)N4CCCC4)CC3)n2Cc2c(F)cccc2Cl)o1 | 897 s |
| CCS(=O)(=O)N1CC(F)(F)C[C@H]1c1nnc(-c2ccccc2)o1 | 824 s |
| Cc1ccc(CNC(=O)C2(C)Oc3cccnc3N(C)C2=O)cc1 (stereo not given) | 806 s |
| CCCc1noc(-c2ccc3nnc(CC(=O)Nc4ccc(Cl)cc4)n3c2)n1 | 937 s |
| O=C(Nc1cccc(F)c1)c1nnc(C(=O)N2CCC(C(=O)NC3CCCC3)CC2)s1 | 786 s |
| Cc1ccc(NC(=O)N2CCCC2c2c(C)noc2C)cc1F (stereo not given) | 809 s |
| CCNC(=O)c1nn(-c2ccc(OC)c(OC)c2)c(OC)cc1=O | 626 s |
| Cn1nc(C(=O)N2CCOCC2)c2c1CCN(C(=O)Nc1ccc(F)c(Cl)c1)C2 | 1070 s |
| Cc1cc(C(=O)Nc2nnc(-c3ccn(C(C)C)n3)o2)no1 | 620 s |
| Cc1ccc(-c2noc(-c3nnc(NCCCN4CCOCC4)c4ccccc34)n2)cc1 | 735 s |
| Cc1cc(Cl)ccc1NS(=O)(=O)c1cc(-c2[nH]ncc2C(=O)N(C)C)oc1C | 730 s |
| COC(=O)c1cccc(C(=O)Nc2cccc(C)c2C)n1 | 899 s |
| CCC(C)NC(=O)C1CCN(C(=O)Nc2ccc(NC(=O)Nc3ccccc3)cc2)CC1 (stereo not given) | 748 s |
| CC(=O)N1CCc2cc(S(=O)(=O)NCCn3nc(-c4cccs4)ccc3=O)ccc21 | 650 s |
| COc1ccc(CN(CCC2(C(C)C)CCOC(C)(C)C2)C(C)=O)cc1 (stereo not given) | 987 s |
| CCn1nc(-c2nc(C(C)(C)C)no2)ccc1=O | 883 s |
| Cc1cccc(NC(=O)c2cc(C(C)C)n3nccc3n2)c1 | 1160 s |
| Cc1ccc(-n2c(=O)n(CC(=O)Nc3ccc(C)cc3C)c3cccnc32)cc1 | 907 s |
| CSc1ccccc1NC(=O)C(=O)NCC1(c2cccs2)CCCC1 | 1280 s |
| Fc1ccc(-c2cc(CN3CCCC3)[nH]n2)cc1 | 594 s |
| COc1cc2nc(C(=O)N3CCC(C)CC3)cc(Nc3cccc(SC)c3)c2cc1OC | 776 s |
| CC(C)NC(=O)C1CCCN(C(=O)Nc2ccc(NC(=O)Nc3ccccc3F)cc2)C1 (stereo not given) | 735 s |
| CCOC(=O)c1[nH]c(C)c(CCC(=O)NCCN2CCN(C)CC2)c1C | 547 s |
| COc1ccccc1C(=O)N1c2ccccc2NC(=O)CC1C (stereo not given) | 639 s |
| COc1cccc(-n2nnc(C(=O)O)c2-c2ccncc2)c1 | 628 s |
| CCn1c(=O)c2ccccc2n(Cc2nc(-c3ccc4c(c3)OCO4)no2)c1=O | 960 s |
| CC(C)(C)n1nnnc1C1CC2(CCOCC2)C(=O)N1Cc1ccccc1F (stereo not given) | 756 s |

More lines, now with the values ahead:

| RP-LC retention time | Compound |
| --- | --- |
| 709 s | O=C(c1nnc(-c2csc(S(=O)(=O)N3CCN(c4ccccn4)CC3)c2)o1)N1CCCCC1 |
| 750 s | Cc1ccccc1-c1noc(-c2cccn(CC(=O)N3CCCC3)c2=O)n1 |
| 944 s | CC1=C(c2ccc(Cl)cc2)S(=O)(=O)N=C1N1CCCN(C(=O)CC(C)(C)C)CC1 |
| 760 s | Cc1ccccc1CNC(=O)C1CCCN(C(=O)C2Sc3ccccc3NC2=O)C1 (stereo not given) |
| 880 s | CCn1nnc2c(N3CCN(S(=O)(=O)c4cccc(Cl)c4)CC3)ncnc21 |
| 658 s | CNC(=O)c1cc(=O)n(CC(=O)Nc2ccc3c(c2)OCO3)c2ccccc12 |
| 610 s | CCCN1CCN(C(=O)C2Cc3cc(S(=O)(=O)N(CC)CC)ccc3N2C(C)=O)CC1 (stereo not given) |
| 789 s | CC(C)OCCCNC(=O)C1CCCN(c2ccc(=O)n(-c3cccc(Cl)c3)n2)C1 (stereo not given) |
| 598 s | CCN(CC)C(=O)c1ccc2c(c1)N(CC(=O)N1CCN(c3ccccn3)CC1)C(=O)CS2 |
| 576 s | CC1(C(=O)N2CCN(Cc3ccc4c(c3)OCO4)CC2)CCCCC(=O)N1 (stereo not given) |
| 701 s | CC(C)n1c(CCNC(=O)c2cccc(Cl)c2)nc2cccnc21 |
| 669 s | CC(=O)Nc1ccc2c(c1)Sc1ncccc1C(=O)N2C(C)C |
| 811 s | O=c1n(Cc2cccc(Br)c2)nc2c(S(=O)(=O)N3CCOCC3)cccn12 |
| 686 s | CN1CCN(C(=O)c2csc(N3CCN(c4ccc(Cl)cc4)CC3)n2)CC1 |
| 782 s | Cc1ccc(N2CCN(CC(O)COc3cccc(C)c3)CC2)cc1 (stereo not given) |
| 1040 s | COc1ccc(N2CCN(c3cc(SCC(=O)Nc4cc(F)ccc4C)ncn3)CC2)cc1 |
| 552 s | NC(=O)C1CCN(c2ccc3cccc(OCC(=O)NCc4ccco4)c3n2)CC1 |
| 1120 s | CCN1C(=O)C2(CCN(S(=O)(=O)c3cccc(C(F)(F)F)c3)CC2)c2ccccc21 |

| RP-LC retention time | Compound |
| --- | --- |
| 816 s | COCc1cc(=O)n(CCc2ccccc2)c(N2CCCC2)n1 |
| 762 s | COc1ccc(-c2cc(=O)n(CC(=O)Nc3nc4c(s3)CCCC4)cn2)cc1 |
| 737 s | CCOc1ccc(CNC(=O)C2CCCN(c3nn4c(=O)c5c(nc4s3)CCCC5)C2)cc1OC (stereo not given) |
| 952 s | Cc1sc(NC(=O)c2ccccc2)nc1-c1ccc2c(c1)N(C)C(=O)CO2 |
| 868 s | O=C(Cn1c(=O)oc2ccc(C(=O)N3CCCC3)cc21)N1CCC(Cc2ccccc2)CC1 |
| 1040 s | CC1CCN(C(=O)Cn2nc(-c3nc(-c4cccc(Cl)c4)no3)ccc2=O)CC1 |
| 1290 s | CC1CCN(S(=O)(=O)c2ccc(C(=O)Nc3nc4c(s3)CCc3ccccc3-4)cc2)CC1 |
| 883 s | CCOc1ccc(NS(=O)(=O)c2cc(C(=O)N3CCN(c4ccccc4)CC3)n[nH]2)cc1 |
| 826 s | COC(=O)CCNC(=O)C1c2ccccc2C(=O)N(c2ccccc2)C12CCCCC2 (stereo not given) |
| 658 s | CCCNc1cc(N2CCCC(CCC(=O)N(CC)CC)C2)ncn1 (stereo not given) |
| 770 s | CCN(CC)C(=O)CSc1nnc(-c2ccc3c(c2)OCCCO3)n1C(C)C |
| 972 s | CCCc1ccc(S(=O)(=O)NC2CCN(c3ccc(=O)n(CC4CC4)n3)CC2)cc1 |
| 864 s | CCc1ccccc1NC(=O)N1CCCC(C)(C(=O)NCc2ccc(F)cc2)C1 (stereo not given) |
| 1010 s | COc1ccc(Nc2nc(N3CCN(c4ncccn4)CC3)nc3c2C(=O)CCC3)cc1 |
| 727 s | O=C(Cn1c(=O)c2cc(C3CC3)nn2c2ncccc21)NCc1ccccc1 |
| 750 s | Clc1cccc(CN2CCN(c3cnn4c(C5CC5)nnc4c3)CC2)c1 |
| 797 s | COc1ccc(NC(=O)Cn2nc3c(N4CCSCC4)nccn3c2=O)c(OC)c1 |

Reference: the METLIN SMRT retention time set (Domingo-Almenara et al. 2019)
